Data from the supplement of paper PMC10307832.

Assays:
Experiment in all cases: relative viability (nuclei count vs DMSO), 5 days (fraction); higher = more cells survive
QS11 + Lapatinib = compound: C1CC2=C(C1)C=C(C=C2)OC3=NC(=C4C(=N3)N(C=N4)CC5=CC=C(C=C5)C6=CC=CC=C6)N[C@@H](CC7=CC=CC=C7)CO [QS11] + CS(=O)(=O)CCNCc1ccc(-c2ccc3ncnc(Nc4ccc(OCc5cccc(F)c5)c(Cl)c4)c3c2)o1 [Lapatinib] (partner 2 µM)
Summary of the method: (§1)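 Lung cancer cell lines in 1536-well plates got either a single drug or a fixed anchor-drug dose together with five library-drug doses (not always all listed) in √10 steps, by pin tool, on the day after seeding. Nuclei were counted after 5 days, and relative viability is the treated-to-vehicle ratio of nuclei counts. Values are medians of duplicate plates.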

[1] = compound: C[As](C)SC[C@H](NC(=O)CC[C@H](N)C(=O)O)C(=O)NCC(=O)O [Darinaparsin] + CC(=O)Nc1cccc(-n2c(=O)n(C3CC3)c(=O)c3c(Nc4ccc(I)cc4F)n(C)c(=O)c(C)c32)c1 [Trametinib] (partner 0.02 µM)
Summary of the method: as §1

[2] = compound: C[As](C)SC[C@H](NC(=O)CC[C@H](N)C(=O)O)C(=O)NCC(=O)O [Darinaparsin] + CC(=O)c1c(C)c2cnc(Nc3ccc(N4CCNCC4)cn3)nc2n(C2CCCC2)c1=O [Palbociclib] (partner 0.5 µM)
Summary of the method: as §1

[3] = compound: C[As](C)SC[C@H](NC(=O)CC[C@H](N)C(=O)O)C(=O)NCC(=O)O [Darinaparsin] + C[C@@H](Oc1cc(-c2cnn(C3CCNCC3)c2)cnc1N)c1c(Cl)ccc(F)c1Cl [Crizotinib] (partner 1 µM)
Summary of the method: as §1

| Cell Line | relative viability (QS11 + Lapatinib; first compound 0.08 µM) | relative viability (QS11 + Lapatinib; first compound 0.253 µM) | relative viability (QS11 + Lapatinib; first compound 0.8 µM) | relative viability (QS11 + Lapatinib; first compound 2.53 µM) | relative viability (QS11 + Lapatinib; first compound 8 µM) | relative viability ([1]; first compound 0.08 µM) | relative viability ([1]; first compound 0.8 µM) | relative viability ([1]; first compound 2.53 µM) | relative viability ([1]; first compound 8 µM) | relative viability ([2]; first compound 0.08 µM) | relative viability ([2]; first compound 0.8 µM) | relative viability ([2]; first compound 2.53 µM) | relative viability ([2]; first compound 8 µM) | relative viability ([3]; first compound 0.08 µM) | relative viability ([3]; first compound 0.8 µM) | relative viability ([3]; first compound 2.53 µM) | relative viability ([3]; first compound 8 µM) |
| --- | --- | --- | --- | --- | --- | --- | --- | --- | --- | --- | --- | --- | --- | --- | --- | --- | --- |
| NCI-H2087 | 0.996 | 1.09 | 0.728 | 0.651 | 0.688 | 0.185 | 0.176 | 0.185 | 0.263 | 0.225 | 0.215 | 0.169 | 0.204 | 1.04 | 0.911 | 0.889 | 1.11 |
| LOU-NH91 | 0.742 | 0.622 |  | 0.731 | 0.685 | 0.848 | 0.747 | 0.851 | 0.822 | 0.576 | 0.512 | 0.562 | 0.641 | 0.779 | 0.759 | 0.75 | 0.737 |
| 201T | 1.05 | 0.835 | 0.834 | 1.11 | 0.895 | 0.777 | 0.728 | 0.711 | 0.751 | 0.345 | 0.342 | 0.363 | 0.368 | 1.09 | 1.02 | 1 | 1.09 |
| UMC-11 | 0.873 | 0.984 | 0.874 | 1.16 | 1.33 | 0.781 | 0.643 | 0.729 | 0.704 | 0.309 | 0.342 | 0.295 | 0.345 | 0.678 | 0.577 | 0.407 | 0.559 |
| NCI-H1975 | 0.912 | 0.805 | 0.965 | 1.03 | 1.18 | 0.35 | 0.382 | 0.328 | 0.307 | 0.693 | 0.634 | 0.504 | 0.606 | 1.13 | 1.12 | 0.879 | 1.42 |
| SW 1573 | 1.02 | 1.14 | 1.1 | 1.05 | 1.2 | 0.589 | 0.516 | 0.58 | 0.744 | 0.412 | 0.353 | 0.355 | 0.488 | 1.13 | 0.711 | 0.668 | 0.851 |
| NCI-H1792 |  | 1.03 | 0.633 | 0.937 | 0.711 | 0.513 | 0.52 |  | 0.557 | 0.634 | 0.633 | 0.524 | 0.754 | 1.95 | 0.989 | 0.654 | 1.34 |
| HCC-366 | 0.97 | 0.992 |  | 0.67 | 0.246 | 0.393 |  | 0.336 | 0.378 | 0.603 |  | 0.368 | 0.533 | 1.26 | 0.523 | 0.265 | 0.828 |
| NCI-H1915 | 1.04 | 1.02 |  | 1.02 | 0.802 | 0.336 | 0.301 | 0.288 | 0.3 | 0.573 | 0.52 | 0.502 | 0.539 | 1.06 | 0.839 | 0.795 | 1.13 |
